For one assay, the target named is Carbonic anhydrase 1 (Homo sapiens, UniProt P00915). Description: Inhibition of human carbonic anhydrase 1 after 6 hrs by Lineweaver-Burk plot analysis.
The next assay has as its target Carbonic anhydrase 2 (Homo sapiens, UniProt P00918). Kind of assay: Inhibition of human carbonic anhydrase 2 after 6 hrs by Lineweaver-Burk plot analysis.

Carbonic anhydrase 1, sequence (P00915 whole entry): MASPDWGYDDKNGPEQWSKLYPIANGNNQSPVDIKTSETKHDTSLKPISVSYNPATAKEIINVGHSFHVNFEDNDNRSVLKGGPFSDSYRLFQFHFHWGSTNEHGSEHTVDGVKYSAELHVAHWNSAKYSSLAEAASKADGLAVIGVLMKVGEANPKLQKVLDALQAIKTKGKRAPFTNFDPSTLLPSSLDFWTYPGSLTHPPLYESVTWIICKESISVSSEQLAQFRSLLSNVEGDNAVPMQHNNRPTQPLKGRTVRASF

In general, Ki refers to the equilibrium dissociation constant of an inhibitor or competing ligand from its target. High values mean lower affinity, low ones higher affinity. On to `Cc1ccc(C(=O)C(O)(O)C(F)(F)F)cc1`, for which the Ki came to 410 µM on Carbonic anhydrase 1 and 9 µM at Carbonic anhydrase 2.

Source of the values: ChEMBL document CHEMBL1759934, “Virtual screening-driven identification of human carbonic anhydrase inhibitors incorporating an original, new pharmacophore” (Bioorg Med Chem Lett, 2011).
